Assay results taken from ChEMBL document CHEMBL4325829, “Design and Synthesis of Tubulin and Histone Deacetylase Inhibitor Based on iso-Combretastatin A-4” (J Med Chem, 2018).
Activity calls are given as the source filed them. The calls are words filed in the database; no cut-off is given here.

What was measured:
[1] = Induction of apoptosis in human BL2 cells assessed as late apoptotic cells at 10 nM after 48 hrs by annexin V-FITC/propidium iodide double staining-based flow cytometry (reference value: 2.1%); type: functional
[2] = target: Histone deacetylase 2 (Homo sapiens) (UniProt Q92769); experiment: Inhibition of human recombinant HDAC2 at 10^-5 M after 15 mins using fluorogenic substrate by fluorimetric assay relative to control
[3] = target: Histone deacetylase 7 (Homo sapiens) (UniProt Q8WUI4); experiment: Inhibition of human recombinant HDAC7 at 10^-5 M after 45 mins using fluorogenic substrate by fluorimetric assay relative to control
A549 = experiment: Antiproliferative activity against human A549 cells after 72 hrs by MTS assay; type: functional; conditions: Homo sapiens, A549, 72 h
K-562R = experiment: Antiproliferative activity against human K562R cells after 72 hrs by MTS assay; type: functional; conditions: Homo sapiens, K-562R, 72 h
U-87 MG = experiment: Antiproliferative activity against human U87 cells after 72 hrs by MTS assay; type: functional, U-87MG ATCC; conditions: Homo sapiens, U-87 MG, 72 h
[4] = target: Histone deacetylase 5 (Homo sapiens) (UniProt Q9UQL6); experiment: Inhibition of human recombinant HDAC5 at 10^-5 M after 30 mins using fluorogenic substrate by fluorimetric assay relative to control
MIA PaCa-2 = experiment: Antiproliferative activity against human MIAPaCa2 cells after 72 hrs by MTS assay; type: functional; conditions: Homo sapiens, MIA PaCa-2, 72 h
HCT-116 = experiment: Antiproliferative activity against human HCT116 cells after 72 hrs by MTS assay; type: functional; conditions: Homo sapiens, HCT-116, 72 h
MCF7 = experiment: Antiproliferative activity against human MCF7 cells after 72 hrs by MTS assay; type: functional; conditions: Homo sapiens, MCF7, 72 h
[5] = target: Histone deacetylase 4 (Homo sapiens) (UniProt P56524); experiment: Inhibition of human recombinant HDAC4 at 10^-5 M after 30 mins using fluorogenic substrate by fluorimetric assay relative to control
[6] = Induction of apoptosis in human BL2 cells assessed as early apoptotic cells at 10 nM after 48 hrs by annexin V-FITC/propidium iodide double staining-based flow cytometry (reference value: 8.2%); type: functional
[7] = target: T1, Histone deacetylase 8 (Homo sapiens) (UniProt Q9BY41); experiment: Inhibition of human recombinant HDAC8 at 10^-5 M after 60 mins using fluorogenic substrate by fluorimetric assay relative to control
T1 sequence (whole entry): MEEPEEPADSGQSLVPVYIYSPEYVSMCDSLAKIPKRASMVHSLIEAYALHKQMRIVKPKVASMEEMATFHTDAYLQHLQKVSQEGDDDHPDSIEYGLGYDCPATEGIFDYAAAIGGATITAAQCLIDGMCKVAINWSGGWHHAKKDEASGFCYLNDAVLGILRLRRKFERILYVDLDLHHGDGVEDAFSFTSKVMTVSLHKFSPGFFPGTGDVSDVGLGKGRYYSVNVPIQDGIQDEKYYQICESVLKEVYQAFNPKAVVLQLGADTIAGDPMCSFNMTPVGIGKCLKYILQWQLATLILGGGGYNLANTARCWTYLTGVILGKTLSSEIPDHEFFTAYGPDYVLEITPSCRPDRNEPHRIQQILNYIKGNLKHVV

[8] = target: Polyamine deacetylase HDAC10 (Homo sapiens) (UniProt Q969S8); experiment: Inhibition of human recombinant HDAC10 at 10^-5 M after 45 mins using fluorogenic substrate by fluorimetric assay relative to control
[9] = target: Histone deacetylase 9 (Homo sapiens) (UniProt Q9UKV0); experiment: Inhibition of human recombinant HDAC9 at 10^-5 M after 30 mins using fluorogenic substrate by fluorimetric assay relative to control
Histone deacetylase 11 = target: T2, Histone deacetylase 11 (Homo sapiens, UniProt Q96DB2); experiment: Inhibition of human recombinant HDAC11 after 30 mins using fluorogenic substrate by fluorimetric assay
T2 sequence (Q96DB2 whole entry): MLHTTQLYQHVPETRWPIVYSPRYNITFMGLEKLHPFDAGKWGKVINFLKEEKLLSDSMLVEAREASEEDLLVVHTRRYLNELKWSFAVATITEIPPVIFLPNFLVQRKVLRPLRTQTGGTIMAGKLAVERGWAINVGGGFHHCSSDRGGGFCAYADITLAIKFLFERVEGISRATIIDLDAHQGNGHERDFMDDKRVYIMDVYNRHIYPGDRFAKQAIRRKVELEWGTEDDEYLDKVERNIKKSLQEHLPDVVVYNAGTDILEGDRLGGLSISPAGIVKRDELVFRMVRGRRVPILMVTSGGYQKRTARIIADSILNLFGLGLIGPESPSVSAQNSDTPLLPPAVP

PBL = experiment: Cytotoxicity against human PBL cells assessed as cell growth inhibition after 72 hrs by MTS assay; type: ADME, cell-based

Histone deacetylase 2 (Homo sapiens), sequence (Q92769 whole entry): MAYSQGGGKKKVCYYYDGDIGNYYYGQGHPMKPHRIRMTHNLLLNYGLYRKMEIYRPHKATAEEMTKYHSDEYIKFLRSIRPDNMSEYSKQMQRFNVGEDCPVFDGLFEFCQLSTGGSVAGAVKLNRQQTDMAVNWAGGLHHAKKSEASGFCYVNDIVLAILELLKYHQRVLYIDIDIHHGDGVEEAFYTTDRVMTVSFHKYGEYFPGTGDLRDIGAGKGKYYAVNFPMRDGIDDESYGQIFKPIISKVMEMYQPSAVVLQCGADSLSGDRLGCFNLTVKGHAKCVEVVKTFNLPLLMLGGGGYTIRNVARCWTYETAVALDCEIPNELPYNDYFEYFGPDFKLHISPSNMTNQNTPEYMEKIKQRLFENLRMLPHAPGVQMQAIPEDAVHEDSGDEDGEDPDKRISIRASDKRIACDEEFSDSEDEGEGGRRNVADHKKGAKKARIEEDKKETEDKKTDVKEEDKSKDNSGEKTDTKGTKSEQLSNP
Histone deacetylase 5 (Homo sapiens), sequence (Q9UQL6 whole entry): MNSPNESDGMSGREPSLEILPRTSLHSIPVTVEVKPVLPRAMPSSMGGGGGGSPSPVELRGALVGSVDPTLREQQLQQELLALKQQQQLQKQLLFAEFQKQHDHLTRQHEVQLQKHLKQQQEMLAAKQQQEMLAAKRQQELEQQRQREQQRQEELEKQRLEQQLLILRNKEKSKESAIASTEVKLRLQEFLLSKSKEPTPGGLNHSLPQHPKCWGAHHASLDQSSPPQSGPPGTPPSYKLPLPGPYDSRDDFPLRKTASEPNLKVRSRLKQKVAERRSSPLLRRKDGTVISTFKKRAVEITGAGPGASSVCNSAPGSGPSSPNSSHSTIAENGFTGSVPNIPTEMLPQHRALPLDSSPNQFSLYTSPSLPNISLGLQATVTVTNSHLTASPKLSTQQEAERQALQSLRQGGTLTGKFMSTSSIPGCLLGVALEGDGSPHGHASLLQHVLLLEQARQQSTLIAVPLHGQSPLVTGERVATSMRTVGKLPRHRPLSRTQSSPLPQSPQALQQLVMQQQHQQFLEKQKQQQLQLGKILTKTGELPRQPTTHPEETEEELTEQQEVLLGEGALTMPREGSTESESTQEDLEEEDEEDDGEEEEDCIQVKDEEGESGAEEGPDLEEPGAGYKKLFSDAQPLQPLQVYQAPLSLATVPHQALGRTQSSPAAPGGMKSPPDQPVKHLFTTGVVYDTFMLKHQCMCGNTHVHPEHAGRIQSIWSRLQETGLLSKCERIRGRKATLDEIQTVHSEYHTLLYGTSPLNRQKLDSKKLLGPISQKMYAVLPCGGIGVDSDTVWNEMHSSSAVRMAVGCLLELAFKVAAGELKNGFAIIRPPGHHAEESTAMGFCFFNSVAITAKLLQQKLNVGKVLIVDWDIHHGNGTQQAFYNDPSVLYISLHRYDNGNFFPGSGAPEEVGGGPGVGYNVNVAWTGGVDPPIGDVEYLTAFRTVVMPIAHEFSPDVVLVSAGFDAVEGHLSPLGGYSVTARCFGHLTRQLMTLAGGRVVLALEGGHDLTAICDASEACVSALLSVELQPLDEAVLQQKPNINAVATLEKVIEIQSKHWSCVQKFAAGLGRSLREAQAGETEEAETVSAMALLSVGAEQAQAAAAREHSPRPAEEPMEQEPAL
Histone deacetylase 7 (Homo sapiens), sequence (Q8WUI4 whole entry): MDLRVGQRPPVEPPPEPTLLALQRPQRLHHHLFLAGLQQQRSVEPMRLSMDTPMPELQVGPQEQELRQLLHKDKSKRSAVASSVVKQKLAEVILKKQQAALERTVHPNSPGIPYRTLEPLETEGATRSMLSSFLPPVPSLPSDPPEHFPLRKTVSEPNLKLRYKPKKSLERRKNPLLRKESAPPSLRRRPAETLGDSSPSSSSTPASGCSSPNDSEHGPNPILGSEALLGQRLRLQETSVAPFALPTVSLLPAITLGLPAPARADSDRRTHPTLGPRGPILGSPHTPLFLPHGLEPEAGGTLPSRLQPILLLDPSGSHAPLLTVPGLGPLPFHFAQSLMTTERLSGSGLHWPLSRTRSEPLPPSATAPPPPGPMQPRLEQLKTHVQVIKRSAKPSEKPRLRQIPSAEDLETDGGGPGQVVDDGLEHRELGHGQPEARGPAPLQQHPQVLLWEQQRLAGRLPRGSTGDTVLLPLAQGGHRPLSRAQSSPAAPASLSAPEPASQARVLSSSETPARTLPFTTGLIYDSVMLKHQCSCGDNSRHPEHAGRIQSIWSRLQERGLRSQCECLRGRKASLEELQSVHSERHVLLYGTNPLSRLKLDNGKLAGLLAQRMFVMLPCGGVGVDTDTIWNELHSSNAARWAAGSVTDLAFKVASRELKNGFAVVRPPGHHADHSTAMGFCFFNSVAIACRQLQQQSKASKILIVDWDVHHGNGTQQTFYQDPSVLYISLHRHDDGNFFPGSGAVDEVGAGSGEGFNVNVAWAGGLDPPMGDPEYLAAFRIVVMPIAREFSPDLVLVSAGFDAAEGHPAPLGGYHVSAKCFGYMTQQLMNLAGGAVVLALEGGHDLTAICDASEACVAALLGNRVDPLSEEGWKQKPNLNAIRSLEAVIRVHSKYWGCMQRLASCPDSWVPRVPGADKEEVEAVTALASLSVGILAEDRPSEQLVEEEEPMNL
Polyamine deacetylase HDAC10 (Homo sapiens), sequence (Q969S8 whole entry): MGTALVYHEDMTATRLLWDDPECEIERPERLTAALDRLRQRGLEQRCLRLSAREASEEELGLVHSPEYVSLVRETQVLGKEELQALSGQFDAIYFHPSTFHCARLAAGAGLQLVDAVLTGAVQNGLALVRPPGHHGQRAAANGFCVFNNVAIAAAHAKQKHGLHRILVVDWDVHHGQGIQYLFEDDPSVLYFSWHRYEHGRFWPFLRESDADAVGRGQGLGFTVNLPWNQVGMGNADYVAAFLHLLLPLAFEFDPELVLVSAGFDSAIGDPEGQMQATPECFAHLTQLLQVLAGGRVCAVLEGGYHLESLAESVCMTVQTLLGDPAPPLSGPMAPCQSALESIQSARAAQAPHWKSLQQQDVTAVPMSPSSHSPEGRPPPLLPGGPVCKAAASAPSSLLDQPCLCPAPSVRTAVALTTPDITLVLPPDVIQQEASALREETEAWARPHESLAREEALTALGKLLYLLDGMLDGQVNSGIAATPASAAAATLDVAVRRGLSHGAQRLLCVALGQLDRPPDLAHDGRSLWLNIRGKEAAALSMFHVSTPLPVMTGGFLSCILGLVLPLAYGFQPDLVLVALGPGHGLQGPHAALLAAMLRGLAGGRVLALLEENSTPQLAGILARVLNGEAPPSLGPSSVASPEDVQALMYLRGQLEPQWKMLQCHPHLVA
Histone deacetylase 4 (Homo sapiens), sequence (P56524 whole entry): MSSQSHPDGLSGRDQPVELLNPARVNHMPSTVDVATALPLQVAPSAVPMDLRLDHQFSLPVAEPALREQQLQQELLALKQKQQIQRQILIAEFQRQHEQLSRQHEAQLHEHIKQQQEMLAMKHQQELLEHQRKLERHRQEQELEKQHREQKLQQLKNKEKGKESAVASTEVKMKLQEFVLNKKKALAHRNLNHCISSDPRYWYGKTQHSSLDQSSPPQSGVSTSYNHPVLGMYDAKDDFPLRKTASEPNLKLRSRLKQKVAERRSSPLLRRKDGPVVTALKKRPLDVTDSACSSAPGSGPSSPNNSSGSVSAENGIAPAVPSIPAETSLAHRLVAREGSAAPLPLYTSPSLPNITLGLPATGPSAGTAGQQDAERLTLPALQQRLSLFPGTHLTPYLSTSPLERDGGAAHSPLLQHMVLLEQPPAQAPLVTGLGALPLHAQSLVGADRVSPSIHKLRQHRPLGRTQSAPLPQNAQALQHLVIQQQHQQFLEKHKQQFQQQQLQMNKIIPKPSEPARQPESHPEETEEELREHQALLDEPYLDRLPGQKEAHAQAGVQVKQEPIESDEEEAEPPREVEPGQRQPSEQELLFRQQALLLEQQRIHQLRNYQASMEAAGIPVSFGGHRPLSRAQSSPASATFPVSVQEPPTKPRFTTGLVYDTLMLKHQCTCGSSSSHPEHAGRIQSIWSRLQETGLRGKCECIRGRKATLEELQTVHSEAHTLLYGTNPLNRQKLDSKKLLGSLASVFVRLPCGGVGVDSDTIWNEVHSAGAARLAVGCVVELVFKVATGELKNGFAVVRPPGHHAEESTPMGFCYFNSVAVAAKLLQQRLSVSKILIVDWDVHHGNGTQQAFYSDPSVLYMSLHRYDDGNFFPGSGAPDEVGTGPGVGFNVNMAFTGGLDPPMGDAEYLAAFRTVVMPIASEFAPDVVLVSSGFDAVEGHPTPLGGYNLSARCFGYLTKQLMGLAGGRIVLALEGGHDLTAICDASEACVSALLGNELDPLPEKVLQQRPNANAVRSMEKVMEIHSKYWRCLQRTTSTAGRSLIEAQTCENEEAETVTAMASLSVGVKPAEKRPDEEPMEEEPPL

`C=C(c1ccc(OC)c(/C=C/C(=O)NO)c1)c1cc(OC)c(OC)c(OC)c1` gave an Activity [1] of 13.7%, an inhibition [2] of under 50% and an inhibition [3] of under 50%. The GI50 (A549) was 1.7 nM, the GI50 (K-562R) was 1.4 nM and the GI50 (U-87 MG) was 1.6 nM. The inhibition [4] was under 50%, the GI50 (MIA PaCa-2) was 5.1 nM and the GI50 (HCT-116) was 1.5 nM. The GI50 (MCF7) was 2 nM, the inhibition [5] was under 50% and the Activity [6] was 82.1%. It also gave an inhibition [7] of 95%, an inhibition [8] of under 50% and an inhibition [9] of under 50%. For the same molecule, the IC50 (Histone deacetylase 11; read-out: IC50) was 10000 nM and the IC50 (PBL) was 7000 nM.

In the case of `C=C(c1ccc(OC)c(O)c1)c1cc(OC)c(OC)c(OC)c1`, the Activity [1] is reported as 14.3%, the inhibition [2] is reported as “inactive” and the inhibition [3] is reported as “inactive”. For the same molecule, the GI50 (A549) was 10 nM, the GI50 (K-562R) was 2.2 nM and the GI50 (U-87 MG) was 8 nM. For the same molecule, the inhibition [4] was “inactive”, the GI50 (MIA PaCa-2) was 10 nM and the GI50 (HCT-116) was 2 nM. For the same molecule, the GI50 (MCF7) was 8 nM, the inhibition [5] was “inactive” and the Activity [6] was 81.7%. For the same molecule, the inhibition [7] was “inactive”, the inhibition [8] was “inactive” and the inhibition [9] was “inactive”. For the same molecule, the IC50 (Histone deacetylase 11) was “Not Active” and the IC50 (PBL) was 1700 nM.
